{"source": "patent US20050281888A1", "about": "“Nutritional supplement for infants” (priority 2004, published 2005)", "test_system": "blood lymphocytes", "experiment": "Zinc dose response: lymphocyte response to mitogen PHA in supplemented infants", "format": "in vivo, infants (human), age 4-36 months", "conditions": "for Lymphocyte response to PHA (stimulation index): infants age 4-36 months", "protocol": "The basic concept underlying the assessment of the most optimum nutrient amounts for a given age group uses the principle of “dose-response graphs”. At least four groups of individuals were provided with various amounts of a given nutrient and their immune responses were measured using established and accepted techniques. The amount of a nutrient that gave the best response was considered the optimum amount. Dose response graphs were determined for all vitamins and trace elements considered essential for human health, particularly immunity.\nData for the dose response chart for zinc in a group of 4 to 36 month old infants is shown in FIG. 1, with the total amount of zinc taken is shown for each group. To determine the magnitude of immune response, an aliquot of blood was withdrawn from each subject in the study, blood lymphocytes were separated, washed and mixed with the mitogen phytohemagglutinin (PHA) in previously determined optimum amount. The optimum amount of PHA used in the experiments was predetermined by a set of dose response graphs using lymphocytes of a healthy donor and four different concentrations of PHA. After culture in a sterile environment for 72 hours, the cells were washed and mixed with radioactive thymidine. The same steps were undertaken in a control sample in which only the culture medium was used, not PHA. The cells were washed and radioactivity determined.\nDietary intake of zinc was calculated based on three 24-hour recalls and by the food frequency questionnaire methods.", "data": [{"smiles": "[Zn]", "note": "[zinc]", "values": [{"measurement": "Immune response, conclusion in words", "setting": "3 mg zinc intake in addition to zinc from a balanced diet", "result": "best immune response"}, {"measurement": "Lymphocyte response to PHA (stimulation index)", "setting": "supplemental zinc 3 mg", "result": 58}, {"measurement": "Lymphocyte response to PHA (stimulation index)", "setting": "supplemental zinc 6 mg", "result": 41}, {"measurement": "Lymphocyte response to PHA (stimulation index)", "setting": "supplemental zinc 9 mg", "result": 32}]}]}
